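Step 1: Grow cells in 96-well plates. Step 2: Expose to compound for 48 hours at 5 concentrations. Step 3: Interpolate endpoints linearly; if unreached, use highest concentration. The concentration for 50% growth inhibition is given as GI50. TGI: total growth inhibition.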
What was measured:
Assay in all cases: growth of human tumour cells (NCI), 48 h
[1] = test system: HCC-2998 colon
[2] = test system: OVCAR-3 ovarian
[3] = test system: SK-MEL-2 melanoma
[4] = test system: SF-295 CNS
[5] = test system: HL-60(TB) leukemia
[6] = test system: UACC-62 melanoma
[7] = test system: SW-620 colon
[8] = test system: SF-268 CNS
[9] = test system: HCT-116 colon
[10] = test system: RPMI-8226 leukemia
[11] = test system: MDA-MB-435
[12] = test system: CAKI-1 renal
[13] = test system: MDA-MB-231 breast
[14] = test system: SK-OV-3 ovarian
[15] = test system: MCF7 breast
[16] = test system: BT-549 breast
[17] = test system: K-562 leukemia
[18] = test system: T-47D breast
[19] = test system: TK-10 renal
[20] = test system: RXF 393 renal
[21] = test system: KM12 colon
[22] = test system: SF-539 CNS
[23] = test system: NCI-H226 lung
[24] = test system: NCI/ADR-RES ovarian
[25] = test system: OVCAR-4 ovarian
[26] = test system: HT29 colon
[27] = test system: A549 NSCLC
[28] = test system: ACHN renal
[29] = test system: NCI-H522 lung
[30] = test system: M14 melanoma
[31] = test system: NCI-H460 lung
[32] = test system: LOX IMVI melanoma
[33] = test system: A498 renal
[34] = test system: SR leukemia
[35] = test system: HOP-62 NSCLC
[36] = test system: UO-31 renal
[37] = test system: SNB-19 CNS
[38] = test system: 786-0 renal
[39] = test system: MOLT-4 leukemia
[40] = test system: COLO 205 colon
[41] = test system: DU-145 prostate
[42] = test system: PC-3 prostate
[43] = test system: OVCAR-5 ovarian
[44] = test system: HCT-15 colon
[45] = test system: MALME-3M melanoma
[46] = test system: CCRF-CEM leukemia
[47] = test system: OVCAR-8 ovarian
[48] = test system: IGROV1 ovarian
[49] = test system: SK-MEL-28 melanoma
[50] = test system: UACC-257 melanoma
[51] = test system: SNB-75 CNS
[52] = test system: NCI-H23 lung
[53] = test system: HOP-92 NSCLC
[54] = test system: U251 CNS
[55] = test system: EKVX NSCLC
[56] = test system: HS 578T breast
[57] = test system: SK-MEL-5 melanoma
[58] = test system: SN12C renal

Cc1cc(C)nc(SC2=C(Nc3cc(Cl)ccc3O)C(=O)N(Cc3ccccc3)C2=O)n1
GI50 [1]: > 160 µM
TGI [1]: > 160 µM
GI50 [2]: 18.8 µM
TGI [2]: 53.2 µM
GI50 [3]: 49.5 µM
TGI [3]: > 160 µM
GI50 [4]: 36.8 µM
TGI [4]: > 160 µM
GI50 [5]: 33.3 µM
TGI [5]: 70 µM
GI50 [6]: 16.2 µM
TGI [6]: 41.8 µM
GI50 [7]: 53 µM
TGI [7]: > 160 µM
GI50 [8]: 61.2 µM
TGI [8]: > 160 µM
GI50 [9]: 31.4 µM
TGI [9]: > 160 µM
GI50 [10]: 3.57 µM
TGI [10]: 25.7 µM
GI50 [11]: 62.2 µM
TGI [11]: > 160 µM
GI50 [12]: > 160 µM
TGI [12]: > 160 µM
GI50 [13]: 16.8 µM
TGI [13]: 48 µM
GI50 [14]: > 160 µM
TGI [14]: > 160 µM
GI50 [15]: 20.5 µM
TGI [15]: 109 µM
GI50 [16]: 63 µM
TGI [16]: > 160 µM
GI50 [17]: 5.53 µM
TGI [17]: > 160 µM
GI50 [18]: 15 µM
TGI [18]: 63.2 µM
GI50 [19]: 53.9 µM
TGI [19]: > 160 µM
GI50 [20]: 4.03 µM
TGI [20]: 17.2 µM
GI50 [21]: 27.4 µM
TGI [21]: 73.8 µM
GI50 [22]: > 160 µM
TGI [22]: > 160 µM
GI50 [23]: 1.78 µM
TGI [23]: 47.7 µM
GI50 [24]: > 160 µM
TGI [24]: > 160 µM
GI50 [25]: 34 µM
TGI [25]: > 160 µM
GI50 [26]: 33.8 µM
TGI [26]: 65 µM
GI50 [27]: 30.7 µM
TGI [27]: > 160 µM
GI50 [28]: 43.5 µM
TGI [28]: > 160 µM
GI50 [29]: 17.4 µM
TGI [29]: > 160 µM
GI50 [30]: 48.4 µM
TGI [30]: > 160 µM
GI50 [31]: 56.6 µM
TGI [31]: > 160 µM
GI50 [32]: 27.2 µM
TGI [32]: 89.4 µM
GI50 [33]: > 160 µM
TGI [33]: > 160 µM
GI50 [34]: 18.6 µM
TGI [34]: 70.6 µM
GI50 [35]: 27.6 µM
TGI [35]: 101 µM
GI50 [36]: 80.7 µM
TGI [36]: > 160 µM
GI50 [37]: > 160 µM
TGI [37]: > 160 µM
GI50 [38]: 14.7 µM
TGI [38]: 85.2 µM
GI50 [39]: 6.14 µM
TGI [39]: 31.4 µM
GI50 [40]: 36.4 µM
TGI [40]: 90.7 µM
GI50 [41]: 39 µM
TGI [41]: 108 µM
GI50 [42]: 19.9 µM
TGI [42]: 86.4 µM
GI50 [43]: > 160 µM
TGI [43]: > 160 µM
GI50 [44]: 23.5 µM
TGI [44]: 78.4 µM
GI50 [45]: 39.4 µM
TGI [45]: 99.7 µM
GI50 [46]: 7.38 µM
TGI [46]: 124 µM
GI50 [47]: 27 µM
TGI [47]: 110 µM
GI50 [48]: 25.3 µM
TGI [48]: 88.6 µM
GI50 [49]: 42.3 µM
TGI [49]: 148 µM
GI50 [50]: 32.5 µM
TGI [50]: 102 µM
GI50 [51]: 21.8 µM
TGI [51]: 104 µM
GI50 [52]: 113 µM
TGI [52]: > 160 µM
GI50 [53]: 21.9 µM
TGI [53]: 68.5 µM
GI50 [54]: 38.6 µM
TGI [54]: > 160 µM
GI50 [55]: 57.7 µM
TGI [55]: > 160 µM
GI50 [56]: 28.1 µM
TGI [56]: 87.5 µM
GI50 [57]: 38.9 µM
TGI [57]: > 160 µM

CC(C)(O)CNc1nc(Nc2ccnc(C(F)(F)F)c2)nc(-c2cccc(C(F)(F)F)n2)n1
GI50 [1]: 20.3 µM
TGI [1]: 43.7 µM
GI50 [2]: 20.1 µM
TGI [2]: 52 µM
GI50 [4]: 17.1 µM
TGI [4]: 35.3 µM
GI50 [58]: 19.1 µM
TGI [58]: 54.4 µM
GI50 [5]: 21.1 µM
TGI [5]: 58.2 µM
GI50 [6]: 16.4 µM
TGI [6]: 32.6 µM
GI50 [7]: 26.7 µM
TGI [7]: 86.5 µM
GI50 [8]: 23.1 µM
TGI [8]: 76.4 µM
GI50 [9]: 17.6 µM
TGI [9]: 44.5 µM
GI50 [10]: 18.5 µM
TGI [10]: 56.1 µM
GI50 [11]: 15.8 µM
TGI [11]: 39.9 µM
GI50 [12]: 29.6 µM
TGI [12]: > 100 µM
GI50 [13]: 19.1 µM
TGI [13]: 45.6 µM
GI50 [14]: 26.6 µM
TGI [14]: 68.3 µM
GI50 [15]: 18.2 µM
TGI [15]: 42.5 µM
GI50 [16]: 16.7 µM
TGI [16]: 39.7 µM
GI50 [17]: 29.4 µM
TGI [17]: > 100 µM
GI50 [18]: 17.7 µM
TGI [18]: 56.7 µM
GI50 [19]: 26.6 µM
TGI [19]: 82.4 µM
GI50 [20]: 20.7 µM
TGI [20]: 48.4 µM
GI50 [21]: 16.4 µM
TGI [21]: 43.7 µM
GI50 [22]: 16.6 µM
TGI [22]: 42.7 µM
GI50 [23]: 20.8 µM
TGI [23]: 58.2 µM
GI50 [24]: 17.1 µM
TGI [24]: 53.8 µM
GI50 [25]: 23.9 µM
TGI [25]: 86.9 µM
GI50 [26]: 17.1 µM
TGI [26]: 41.2 µM
GI50 [27]: 19.5 µM
TGI [27]: 39.4 µM
GI50 [28]: 23.5 µM
TGI [28]: 66.7 µM
GI50 [29]: 18.6 µM
TGI [29]: 49.3 µM
GI50 [30]: 16.1 µM
TGI [30]: 34.6 µM
GI50 [31]: 23.8 µM
TGI [31]: 60.8 µM
GI50 [32]: 17.3 µM
TGI [32]: 32.6 µM
GI50 [33]: 16.1 µM
TGI [33]: 37.2 µM
GI50 [34]: 18.3 µM
TGI [34]: 90.9 µM
GI50 [35]: 21.4 µM
TGI [35]: 52.8 µM
GI50 [36]: 19.9 µM
TGI [36]: 50.4 µM
GI50 [37]: 34.4 µM
TGI [37]: > 100 µM
GI50 [38]: 18.6 µM
TGI [38]: 78.5 µM
GI50 [39]: 13.7 µM
TGI [39]: 41.8 µM
GI50 [40]: 18.4 µM
TGI [40]: 38.7 µM
GI50 [41]: 21.6 µM
TGI [41]: 67.8 µM
GI50 [42]: 27.4 µM
TGI [42]: > 100 µM
GI50 [43]: 22.5 µM
TGI [43]: 63 µM
GI50 [44]: 19.7 µM
TGI [44]: 79.8 µM
GI50 [45]: 21.1 µM
TGI [45]: 43.3 µM
GI50 [46]: 21.3 µM
TGI [46]: 73.9 µM
GI50 [47]: 26.3 µM
TGI [47]: 84.8 µM
GI50 [48]: 28.6 µM
TGI [48]: 74.5 µM
GI50 [49]: 17.8 µM
TGI [49]: 36.2 µM
GI50 [50]: 21.7 µM
TGI [50]: 43.6 µM
GI50 [51]: 15.9 µM
TGI [51]: 42.7 µM
GI50 [52]: 18.1 µM
TGI [52]: 42.8 µM
GI50 [53]: 23.4 µM
TGI [53]: 74.2 µM
GI50 [54]: 25.9 µM
TGI [54]: 78.2 µM
GI50 [55]: 21.4 µM
TGI [55]: 64.1 µM
GI50 [56]: 27.8 µM
TGI [56]: 75.9 µM
GI50 [57]: 13.2 µM
TGI [57]: 26.3 µM
